Experimental data published in patent publication US6552080B1, “Fungicidal compounds having a fluorovinyl-or fluoropropenyl-oxyphenyloxime moiety and process for the preparation thereof” (Korea Research Institute of Chemical Technology, priority 1999, dated 2003).
Like-named read-outs stand apart in the source and are kept apart here.

Columns and labels:
Botrytis cinerae = assay: Fungicidal activity against Cucumber Gray Mold Rot (CGM) disease; type: in vivo; details: for CGM (Fungicidal Activities, C.V.): Cucumber Gray Mold Rot, concentration 50 ppm
Rhizoctonia solani AG-1 = assay: Fungicidal activity against Rice Sheath Blight (RSB) disease; details: for RSB (Fungicidal Activities, C.V.): Rice Sheath Blight
[1] = tested on: Pyricularia oryzae Carvara KA301; type: in vivo; details: for RCV (Fungicidal Activities, C.V.): Rice Blast
Phytophthora infestans = type: in vivo; details: for TLB (Fungicidal Activities, C.V.): Tomato Late Blight, concentration 50 ppm
Puccinia recondita = assay: Fungicidal activity against Wheat Leaf Rust (WLR) disease; type: in vivo; details: for WLR (Fungicidal Activities, C.V.): Wheat Leaf Rust
Erysiphae graminis = assay: Fungicidal activity against Barley Powdery Mildew (BPM) disease; type: in vivo; details: for BPM (Fungicidal Activities, C.V.): Barley Powdery Mildew

SMILES	CGM (Fungicidal Activities, C.V.) (Botrytis cinerae) [%]	RSB (Fungicidal Activities, C.V.) (Rhizoctonia solani AG-1; concentration 50 ppm) [%]	RCV (Fungicidal Activities, C.V.) ([1]; concentration 2 ppm) [%]	RCV (Fungicidal Activities, C.V.) ([1]; concentration 10 ppm) [%]	RCV (Fungicidal Activities, C.V.) ([1]; concentration 50 ppm) [%]	TLB (Fungicidal Activities, C.V.) (Phytophthora infestans) [%]	WLR (Fungicidal Activities, C.V.) (Puccinia recondita; concentration 2 ppm) [%]	WLR (Fungicidal Activities, C.V.) (Puccinia recondita; concentration 10 ppm) [%]	WLR (Fungicidal Activities, C.V.) (Puccinia recondita; concentration 50 ppm) [%]	BPM (Fungicidal Activities, C.V.) (Erysiphae graminis; concentration 2 ppm) [%]	BPM (Fungicidal Activities, C.V.) (Erysiphae graminis; concentration 10 ppm) [%]	BPM (Fungicidal Activities, C.V.) (Erysiphae graminis; concentration 50 ppm) [%]	further results
CCc1ccc(C=C(F)Oc2cccc(C=NOCc3ccccc3C(=COC)C(=O)OC)c2)cc1 [Compound 6]	44	75	8	58	99	33	98	100	100	97	99	100	–
CON=C(C(=O)OC)c1ccccc1CON=C(C)c1cccc(OC(F)=C(c2cccc(C)c2)C(F)(F)F)c1 [Compound 174]	–	–	–	–	–	–	–	–	–	–	–	–	Fungicidal Activities CGM (C.V.) (Botrytis cinerae; 50 ppm): 0%; Fungicidal Activities RSB (C.V.) (Rhizoctonia solani AG-1; 2 ppm): 25%; Fungicidal Activities RSB (C.V.) (Rhizoctonia solani AG-1; 50 ppm): 60%; Fungicidal Activities RCV (C.V.) ([1]; 2 ppm): 86%; Fungicidal Activities RCV (C.V.) ([1]; 50 ppm): 96%; Fungicidal Activities TLB (C.V.) (Phytophthora infestans; 50 ppm): 0%; Fungicidal Activities WLR (C.V.) (Puccinia recondita; 2 ppm): 90%; Fungicidal Activities WLR (C.V.) (Puccinia recondita; 50 ppm): 100%; Fungicidal Activities BPM (C.V.) (Erysiphae graminis; 2 ppm): 99%; Fungicidal Activities BPM (C.V.) (Erysiphae graminis; 50 ppm): 100%
CON=C(C(=O)OC)c1ccccc1CON=C(C)c1cccc(OC(F)=Cc2ccc(C)cc2)c1 [Compound 66]	75	100	100	100	100	0	99	100	100	100	100	100	RSB (Fungicidal Activities, C.V.) (Rhizoctonia solani AG-1; concentration 2 ppm): 20%; RSB (Fungicidal Activities, C.V.) (Rhizoctonia solani AG-1; concentration 10 ppm): 65%
COC=C(C(=O)OC)c1ccccc1CON=Cc1cccc(OC(F)=C(c2ccc(Br)cc2)C(F)(F)F)c1 [Compound 118]	36	30	–	–	33	0	91	98	100	88	96	100	–
